Results on 7 molecules are retold here after paper PMC4619380, “Nicotinic Activity of Arecoline, the Psychoactive Element of "Betel Nuts", Suggests a Basis for Habitual Use and Anti-Inflammatory Activity” (PLoS ONE, 2015).

Series [1] relates to α4β2 nAChR (mixed populations formed from monomers). Put plainly: Two-electrode voltage clamp of Xenopus oocytes expressing α4β2 nAChR formed from monomers. Format: cell-based, human. The settings on record: 100 μM arecoline; α4 and β2 monomers. Here is the method: (§1) Human nAChR clones and concatamers were obtained from Dr. J. Lindstrom (University of Pennsylvania, Philadelphia, PA). The human resistance-to-cholinesterase 3 (RIC-3) clone, obtained from Dr. M. Treinin (Hebrew University, Jerusalem, Israel), was co-injected with α7 to improve the level and speed of α7 receptor expression without affecting the pharmacological properties of the receptors. Subsequent to linearization and purification of the plasmid cDNAs, cRNAs were prepared using the mMessage mMachine in vitro RNA transfection kit (Ambion, Austin, TX). […]
(§2) Experiments were conducted using OpusXpress 6000A (Molecular Devices, Union City, CA). […] The responses of α4β2 and α3β4-expressing cells were measured as peak current amplitudes, and the α7 data were calculated as net charge, as previously described.
(§3) Data were collected at 50 Hz, filtered at 20 Hz, analyzed by Clampfit 9.2 (Molecular Devices) and Excel 2003 (Microsoft, Redmond, WA), and normalized to the averaged peak current or net-charge response of the two initial ACh controls for each oocyte. Data were expressed as means ± SEM from at least four oocytes for each experiment and plotted by Kaleidagraph 3.0.2 (Abelbeck Software, Reading, PA). Multi-cell averages were calculated for comparisons of complex responses. […]
(In general: Two-electrode voltage clamp holds a large cell at a set potential and records current.)

The target in series [2] is T1, HS α4(2)β2(3) nAChR (Homo sapiens, UniProt P17787+P43681).
T1 construct: host or cells: Xenopus laevis oocytes injected with cRNA
T1 sequence (P17787+P43681 fused): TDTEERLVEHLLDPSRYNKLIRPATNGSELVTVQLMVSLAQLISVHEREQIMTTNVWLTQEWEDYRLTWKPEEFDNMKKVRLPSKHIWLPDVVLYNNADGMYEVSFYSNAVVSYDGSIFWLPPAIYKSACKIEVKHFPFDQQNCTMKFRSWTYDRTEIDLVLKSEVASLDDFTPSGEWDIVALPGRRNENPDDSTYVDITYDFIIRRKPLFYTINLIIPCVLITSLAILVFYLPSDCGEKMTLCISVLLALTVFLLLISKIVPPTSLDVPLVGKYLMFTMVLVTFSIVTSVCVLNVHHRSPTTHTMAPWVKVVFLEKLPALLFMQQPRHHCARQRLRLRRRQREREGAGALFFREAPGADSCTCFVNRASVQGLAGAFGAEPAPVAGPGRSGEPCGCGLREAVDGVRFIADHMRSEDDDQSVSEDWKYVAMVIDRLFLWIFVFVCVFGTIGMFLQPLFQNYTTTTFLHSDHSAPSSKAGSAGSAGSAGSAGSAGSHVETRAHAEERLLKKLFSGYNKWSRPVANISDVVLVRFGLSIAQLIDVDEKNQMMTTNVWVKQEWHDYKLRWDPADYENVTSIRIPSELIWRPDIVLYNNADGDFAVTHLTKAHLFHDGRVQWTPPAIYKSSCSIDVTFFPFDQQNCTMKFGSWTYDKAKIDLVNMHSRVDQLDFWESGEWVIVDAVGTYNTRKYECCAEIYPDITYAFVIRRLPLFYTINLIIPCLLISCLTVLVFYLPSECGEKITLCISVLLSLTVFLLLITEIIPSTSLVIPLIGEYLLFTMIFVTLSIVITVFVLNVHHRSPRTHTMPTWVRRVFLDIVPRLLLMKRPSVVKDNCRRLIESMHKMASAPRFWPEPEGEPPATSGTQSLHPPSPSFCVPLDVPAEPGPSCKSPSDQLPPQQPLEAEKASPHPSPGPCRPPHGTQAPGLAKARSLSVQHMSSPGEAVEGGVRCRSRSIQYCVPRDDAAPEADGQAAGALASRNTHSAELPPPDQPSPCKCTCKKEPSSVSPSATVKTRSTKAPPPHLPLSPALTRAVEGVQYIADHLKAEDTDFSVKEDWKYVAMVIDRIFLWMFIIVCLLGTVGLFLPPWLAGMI
T1 sequence (P17787 26-502): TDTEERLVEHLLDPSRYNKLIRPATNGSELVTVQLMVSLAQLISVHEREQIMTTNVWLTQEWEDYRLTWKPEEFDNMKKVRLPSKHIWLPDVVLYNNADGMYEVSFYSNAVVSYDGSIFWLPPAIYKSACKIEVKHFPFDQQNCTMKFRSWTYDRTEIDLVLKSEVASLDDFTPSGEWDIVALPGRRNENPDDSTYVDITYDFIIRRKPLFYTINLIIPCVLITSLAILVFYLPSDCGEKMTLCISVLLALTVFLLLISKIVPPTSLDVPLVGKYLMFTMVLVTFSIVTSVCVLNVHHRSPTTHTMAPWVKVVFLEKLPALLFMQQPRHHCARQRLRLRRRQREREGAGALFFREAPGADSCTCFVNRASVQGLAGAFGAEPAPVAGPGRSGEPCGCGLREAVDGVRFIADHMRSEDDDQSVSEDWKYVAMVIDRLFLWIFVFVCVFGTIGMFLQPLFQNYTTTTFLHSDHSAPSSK
Description: Two-electrode voltage clamp of Xenopus oocytes expressing high sensitivity α4β2 nAChR (β2-α4 concatamer plus β2 monomer). It counts as cell-based. Here is the method:
(§4) Human nAChR clones and concatamers were obtained from Dr. J. Lindstrom (University of Pennsylvania, Philadelphia, PA). The human resistance-to-cholinesterase 3 (RIC-3) clone, obtained from Dr. M. Treinin (Hebrew University, Jerusalem, Israel), was co-injected with α7 to improve the level and speed of α7 receptor expression without affecting the pharmacological properties of the receptors. Subsequent to linearization and purification of the plasmid cDNAs, cRNAs were prepared using the mMessage mMachine in vitro RNA transfection kit (Ambion, Austin, TX).
(§5) Oocytes were surgically removed from mature Xenopus laevis frogs (Nasco, Ft. Atkinson, WI) and injected with appropriate nAChR subunit cRNAs as described previously. Frogs were maintained in the Animal Care Service facility of the University of Florida, and all procedures were approved by the University of Florida Institutional Animal Care and Use Committee. In brief, the frog was first anesthetized for 15–20 min in 1.5 L frog tank water containing 1 g of 3-aminobenzoate methanesulfonate buffered with sodium bicarbonate. […]
as §2
Data were collected at 50 Hz, filtered at 20 Hz, analyzed by Clampfit 9.2 (Molecular Devices) and Excel 2003 (Microsoft, Redmond, WA), and normalized to the averaged peak current or net-charge response of the two initial ACh controls for each oocyte. Data were expressed as means ± SEM from at least four oocytes for each experiment and plotted by Kaleidagraph 3.0.2 (Abelbeck Software, Reading, PA). Multi-cell averages were calculated for comparisons of complex responses. […] Averages of the normalized data were calculated for each of the 10,500 points in each of the 210 s traces (acquired at 50 Hz), as well as the standard errors for those averages. […]

The target of another series is T2, human α7 nAChR (Homo sapiens, UniProt P36544).
T2 construct: host or cells: Xenopus laevis oocytes injected with cRNA
T2 sequence (P36544 23-502): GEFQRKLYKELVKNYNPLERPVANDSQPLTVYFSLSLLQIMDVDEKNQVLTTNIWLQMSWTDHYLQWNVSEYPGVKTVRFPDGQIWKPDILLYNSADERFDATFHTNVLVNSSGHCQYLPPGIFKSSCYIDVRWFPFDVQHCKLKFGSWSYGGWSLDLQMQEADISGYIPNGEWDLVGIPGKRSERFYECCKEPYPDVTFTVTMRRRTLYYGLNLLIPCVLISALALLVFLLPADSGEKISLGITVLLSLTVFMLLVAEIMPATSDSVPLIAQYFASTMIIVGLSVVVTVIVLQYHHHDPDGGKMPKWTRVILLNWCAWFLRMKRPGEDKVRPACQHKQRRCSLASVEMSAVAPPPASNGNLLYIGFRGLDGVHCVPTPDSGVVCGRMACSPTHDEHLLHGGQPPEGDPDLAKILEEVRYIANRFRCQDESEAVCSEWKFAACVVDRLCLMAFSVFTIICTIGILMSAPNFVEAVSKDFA
Description: Two-electrode voltage clamp of Xenopus oocytes expressing α7 nAChR (co-injected with RIC-3). Format: cell-based. The settings on record: for EC50: normalized to 60 μM ACh controls; for activation of α7 when applied alone (absence of PAM): no PNU-120596, compared to 60 μM ACh controls; for activation of α7 in the presence of PNU-120596: co-applied with 10 μM PNU-120596. Here is the method:
as §4
Oocytes were surgically removed from mature Xenopus laevis frogs (Nasco, Ft. Atkinson, WI) and injected with appropriate nAChR subunit cRNAs as described previously. Frogs were maintained in the Animal Care Service facility of the University of Florida, and all procedures were approved by the University of Florida Institutional Animal Care and Use Committee. In brief, the frog was first anesthetized for 15–20 min in 1.5 L frog tank water containing 1 g of 3-aminobenzoate methanesulfonate buffered with sodium bicarbonate. The harvested oocytes were treated with 1.25 mg/ml collagenase (Worthington Biochemicals, Freehold, NJ) for 2 h at room temperature in calcium-free Barth’s solution (88 mM NaCl, 1 mM KCl, 2.38 mM NaHCO3, 0.82 mM MgSO4, 15 mM HEPES, and 12 mg/l tetracycline, pH 7.6) to remove the follicular layer. Stage V oocytes were subsequently isolated and injected with 50 nl of 5–20 ng nAChR subunit cRNA. Recordings were carried out 1–7 days after injection.
Experiments were conducted using OpusXpress 6000A (Molecular Devices, Union City, CA). Both the voltage and current electrodes were filled with 3 M KCl. Oocytes were voltage-clamped at -60 mV. The oocytes were bath-perfused with Ringer’s solution (115 mM NaCl, 2.5 mM KCl, 1.8 mM CaCl2, 10 mM HEPES, and 1 μM atropine, pH 7.2) at 2 ml/min for α7 receptors and at 4 ml/min for other subtypes. To evaluate the effects of experimental compounds compared to ACh-evoked responses of various nAChR subtypes expressed in oocytes, baseline conditions were defined by two initial applications of ACh made before test applications. The solutions were applied from a 96-well plate via disposable tips, and the test compounds were applied alone, co-applied with ACh, or co-applied with PNU-120596. For the concentration-response study, drug applications alternated between ACh controls and experimental compounds. Unless otherwise indicated, drug applications were 12 s in duration followed by a 181 s washout period for α7 receptors and 6 s with a 241 s washout for other subtypes. A typical recording for each oocyte constituted two initial control applications of ACh, an experimental compound application, and then a follow-up control application of ACh to determine the desensitization or rundown of the receptors. The control ACh concentrations were 60 μM for α7, 100 μM for α3β4, and 30 μM for α4β2. The responses of α4β2 and α3β4-expressing cells were measured as peak current amplitudes, and the α7 data were calculated as net charge, as previously described.
Data were collected at 50 Hz, filtered at 20 Hz, analyzed by Clampfit 9.2 (Molecular Devices) and Excel 2003 (Microsoft, Redmond, WA), and normalized to the averaged peak current or net-charge response of the two initial ACh controls for each oocyte. Data were expressed as means ± SEM from at least four oocytes for each experiment and plotted by Kaleidagraph 3.0.2 (Abelbeck Software, Reading, PA). Multi-cell averages were calculated for comparisons of complex responses. To permit better comparisons between experiments each single cell response was normalized to the average of the two initial controls obtained from that cell. Averages of the normalized data were calculated for each of the 10,500 points in each of the 210 s traces (acquired at 50 Hz), as well as the standard errors for those averages.

The target of series [3] is T3, LS α4(3)β2(2) nAChR (Homo sapiens, UniProt P17787+P43681).
T3 construct: host or cells: Xenopus laevis oocytes injected with cRNA
T3 sequence (P17787+P43681 fused): as the sequence (P17787+P43681 fused) above
T3 sequence (P43681 27-627): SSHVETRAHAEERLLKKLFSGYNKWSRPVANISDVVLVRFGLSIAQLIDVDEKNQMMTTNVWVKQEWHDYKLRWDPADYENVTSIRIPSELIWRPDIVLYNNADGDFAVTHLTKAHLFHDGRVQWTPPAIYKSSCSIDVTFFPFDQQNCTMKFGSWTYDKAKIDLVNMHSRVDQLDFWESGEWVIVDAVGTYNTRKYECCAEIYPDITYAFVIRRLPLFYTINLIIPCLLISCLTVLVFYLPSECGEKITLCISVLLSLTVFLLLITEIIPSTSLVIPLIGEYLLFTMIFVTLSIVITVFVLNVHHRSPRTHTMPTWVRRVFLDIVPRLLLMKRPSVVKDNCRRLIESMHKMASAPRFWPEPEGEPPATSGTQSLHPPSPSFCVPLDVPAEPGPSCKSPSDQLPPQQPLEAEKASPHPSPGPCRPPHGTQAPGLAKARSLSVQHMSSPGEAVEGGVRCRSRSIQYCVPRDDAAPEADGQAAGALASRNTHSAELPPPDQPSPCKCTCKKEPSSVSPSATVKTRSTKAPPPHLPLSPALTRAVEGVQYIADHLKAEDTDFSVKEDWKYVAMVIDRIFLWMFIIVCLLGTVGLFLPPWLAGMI
Description: Two-electrode voltage clamp of Xenopus oocytes expressing low sensitivity α4β2 nAChR (β2-α4 concatamer plus α4 monomer). Format: cell-based. As for the experimental part:
as §1, §2, §3

Series [4] addresses T4, α6β2β3α4β2 concatamer nAChR (Homo sapiens, UniProt P17787+P43681+Q15825). Put plainly: Two-electrode voltage clamp of Xenopus oocytes expressing the α6-containing concatamer. Format: cell-based. As for the experimental part: as §4, §5, §2
Data were collected at 50 Hz, filtered at 20 Hz, analyzed by Clampfit 9.2 (Molecular Devices) and Excel 2003 (Microsoft, Redmond, WA), and normalized to the averaged peak current or net-charge response of the two initial ACh controls for each oocyte. Data were expressed as means ± SEM from at least four oocytes for each experiment and plotted by Kaleidagraph 3.0.2 (Abelbeck Software, Reading, PA). Multi-cell averages were calculated for comparisons of complex responses. […] Averages of the normalized data were calculated for each of the 10,500 points in each of the 210 s traces (acquired at 50 Hz), as well as the standard errors for those averages.

Details of series [5]: method as in PMID 20412403. The following applies: 90% of betel chewers, prior to chewing; cited from earlier work.
For series [6], the target named is T1, HS α4(2)β2(3) nAChR. The following applies: cited from earlier work.
In series [7] the target is T4, α6β2β3α4β2 concatamer nAChR. Also noted: method as in PMID 20923852. The following applies: cited from earlier work.
For series [8], the target named is T3, LS α4(3)β2(2) nAChR. The following applies: cited from earlier work.
Where [9] appears, read: 100 μM arecoline co-applied with 10 μM PNU-120596, 60 μM ACh controls, n = 7.
Where [10] appears, read: co-applied with 30 μM PNU-120596, relative to 60 μM ACh controls.

“Also recorded” adds a separate entry of the source. Read-outs that look alike come from different tables or passages of the source. Marks after values point to notes of the source that are not given here. A value given as a limit tells only on which side of the number the result lay.

T4 sequence (Q15825 26-494): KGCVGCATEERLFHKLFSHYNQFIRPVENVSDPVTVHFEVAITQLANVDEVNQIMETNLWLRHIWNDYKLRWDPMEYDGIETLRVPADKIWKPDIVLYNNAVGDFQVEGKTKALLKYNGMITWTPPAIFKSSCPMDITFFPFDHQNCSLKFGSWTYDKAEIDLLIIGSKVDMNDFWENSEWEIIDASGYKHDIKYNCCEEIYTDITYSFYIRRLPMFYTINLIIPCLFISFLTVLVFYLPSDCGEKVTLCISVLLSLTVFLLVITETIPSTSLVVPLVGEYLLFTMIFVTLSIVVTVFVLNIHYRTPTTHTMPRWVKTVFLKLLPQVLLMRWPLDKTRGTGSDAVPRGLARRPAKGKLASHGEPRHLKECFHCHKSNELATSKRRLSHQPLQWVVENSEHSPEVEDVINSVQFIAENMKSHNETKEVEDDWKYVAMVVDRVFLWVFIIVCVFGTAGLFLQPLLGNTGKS
T4 sequence (P17787 26-502): as the sequence (P17787 26-502) above
T4 sequence (P43681 27-627): as the sequence (P43681 27-627) above
T4 sequence (Q05901 22-458 partner): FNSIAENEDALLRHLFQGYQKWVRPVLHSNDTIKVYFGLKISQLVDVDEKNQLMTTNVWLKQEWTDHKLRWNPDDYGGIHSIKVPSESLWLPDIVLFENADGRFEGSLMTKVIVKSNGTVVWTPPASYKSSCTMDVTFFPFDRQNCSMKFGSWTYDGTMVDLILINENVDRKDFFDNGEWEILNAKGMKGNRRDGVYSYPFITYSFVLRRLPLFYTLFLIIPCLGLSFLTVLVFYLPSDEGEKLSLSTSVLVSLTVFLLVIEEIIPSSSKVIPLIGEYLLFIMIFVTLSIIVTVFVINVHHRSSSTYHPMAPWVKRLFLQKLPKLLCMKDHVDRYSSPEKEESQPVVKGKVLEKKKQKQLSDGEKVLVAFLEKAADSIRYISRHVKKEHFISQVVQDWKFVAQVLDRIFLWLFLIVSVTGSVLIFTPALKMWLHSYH

Broadly, the EC50 is the concentration needed to bring the measured effect to its halfway point. What is called IC50 is the concentration that inhibits the measured activity by half. Regarding `COC(=O)C1=CCCN(C)C1` [arecoline], the “response to arecoline (activation)” value in [1] is “small but significant activity; also recorded: substantially larger and well above the threshold of detection”; in series [4] (100 μM arecoline) it was “small but significant activity; also recorded: substantially larger and well above the threshold of detection”. Besides, the EC50 at HS α4(2)β2(3) nAChR [2] (HS α4β2, responses relative to ACh maximum) was 14 ± 3 µM; on human α7 nAChR (co-applied with 30 μM PNU-120596, read-out: EC50, net charge), 93 ± 2 µM; on human α7 nAChR (co-applied with 30 μM PNU-120596, read-out: EC50, peak currents), 60 ± 7 µM; on LS α4(3)β2(2) nAChR [3] (LS α4β2, responses relative to ACh maximum), 75 ± 7 µM; in series [4] (α6-containing receptor, responses relative to ACh maximum), 21 ± 4 µM. The “mecamylamine-sensitive steady-state activation relative to ACh maximum” value at HS α4(2)β2(3) nAChR [2] (prolonged bath application of 3 μM arecoline, revealed with 100 μM mecamylamine, seven cells) is recorded as about 1%. The “Imax relative to ACh” value at HS α4(2)β2(3) nAChR [2] (α4(2)β2(3)) is 0.054 ± 0.004; on LS α4(3)β2(2) nAChR [3] (α4(3)β2(2)), 0.036 ± 0.003; in series [4] (α6β2β3α4β2) it was 0.056 ± 0.003. Also, at human α7 nAChR (60 μM ACh applied after the test application and wash), the “effect on subsequent ACh-evoked responses” value was “largely unaffected”. On human α7 nAChR (100 μM arecoline applied alone, extrapolated from ACh controls and earlier ACh concentration-response studies), the “response relative to ACh maximum” value is “less than 1%”. Further, the “net charge of response relative to ACh controls” value on human α7 nAChR (setting [9]) is 37 ± 10 times. Further, the “peak amplitude of response relative to ACh controls” value on human α7 nAChR (setting [9]) was 9.6 ± 3.4 times. Besides, the “Imax relative to ACh controls, net charge” value on human α7 nAChR (setting [10]) is given as 49 ± 1. Moreover, on human α7 nAChR (setting [10]), the “Imax relative to ACh controls, peak currents” value was found to be 15 ± 1. The “activation of α7 when applied alone (absence of PAM)” value (“activation of α7 when applied alone” for short) at human α7 nAChR was “did not produce significant activation”. The IC50 on human α7 nAChR (simple co-application with 60 μM ACh, no PAM, read-out: IC50 for inhibiting 60 μM ACh-evoked responses) is over 1000 µM. The “residual salivary level of arecoline” value in series [5] is reported as “at least 400 nM”.

Consider `O=C1CCCN1CC#CCN1CCCC1` [oxotremorine, reference compound], for which, on human α7 nAChR, the “activation of α7 in the presence of PNU-120596” value (from here on “activation of α7 … of PNU-120596”) is listed as “relatively little additional activation” and the “activation of α7 when applied alone” value is reported as “small but significant activation”.

As to `C[C@@H]1O[C@H](C[N+](C)(C)C)C[C@H]1O` [muscarine, reference compound], on human α7 nAChR, the “activation of α7 … of PNU-120596” value was “failed to activate the receptors under either condition” and the “activation of α7 when applied alone” value is “failed to activate the receptors under either condition”.

Turning to `C[N+](C)(C)CCOC(N)=O` [carbachol, reference compound], on human α7 nAChR, the “activation of α7 … of PNU-120596” value is “stimulated α7 receptors under both conditions” and the “activation of α7 when applied alone” value was “stimulated α7 receptors under both conditions”.

In the case of `CC(=O)OC(C)C[N+](C)(C)C` (stereo not shown) [methacholine, reference compound], on human α7 nAChR, the “activation of α7 … of PNU-120596” value is “not as active as arecoline” and the “activation of α7 when applied alone” value is reported as “silent agonist”.

In the case of `O=c1cccc2n1C[C@@H]1CNC[C@H]2C1` [cytisine], the “Imax relative to ACh” value was ≤ 0.05 ^a on HS α4(2)β2(3) nAChR [6], 0.11 ± 0.03 ^c in series [7] and 0.10 ± 0.02 ^a on LS α4(3)β2(2) nAChR [8].

`c1cnc2cc3c(cc2n1)[C@@H]1CNC[C@H]3C1` [varenicline]: the “Imax relative to ACh” value at HS α4(2)β2(3) nAChR [6] is 0.13 ^b; in series [7] it was 0.18 ± 0.11 ^c; at LS α4(3)β2(2) nAChR [8] it was 0.08 ^b.
